Consider nine molecules from US20240209028A1, “CNP COMPOUNDS” (priority 2022, published 2024).

A word on the fraction remaining: it is the share of the starting amount still present when the sample was taken.

Like-named read-outs stand apart in the source and are kept apart here. Starred links: 1 amine or outer side, 2 acyl side, 3 side chain; linkers in the order of their positions; H or OH if unused. Positions of bridges follow the written chain, without caps; N, C: chain ends. Residues, ends and D or L forms follow the SMILES beside them. No end group written: not given here. *: point of attachment. C18 diacid = O=C(O)CCCCCCCCCCCCCCCCC(=O)*; γGlu = O=C(O)[C@H](CCC(=O)[*:2])N[*:1]; C18d = not defined here; AEEA = NCCOCCOCC(=O)O

Series [1] is described as follows: CNP local tolerance study in LYD pigs (s.c. injection, histopathology). The series is classed as in vivo, domestic LYD pig. Particulars: LYD pig, s.c., approx. 4400 μM, 4 or 5 days after injection. From the text: The purpose of this study was to evaluate the local tissue reaction response to subcutaneous injection of CNP compounds in pigs.
Procedure: In domestic pigs, the injection site was subjected to histopathologic examination after subcutaneous dosing. Injections were placed mid-back between the shoulder and hip on both sides of the dorsal midline, and one or two days before injection sites of 2×2 cm were shaved and marked by permanent ink under light anaesthesia. Each injection consisted of 100 or 200 μl formulation with a concentration of approx. 4400 μM. CNP compound formulations were prepared according to the principles in General Methods of Preparation—Method G, and were either A) 8 mM sodium phosphate, 250 mM glycerol, pH 6.5, B) 5 mM sodium acetate, 250 mM glycerol, pH 4.0 or C) 5 mM sodium acetate, 240 mM propylene glycol, pH 4.0 and physiological saline was included as negative control.
On Day 1 the pigs were lightly anaesthetised. An insulin pen (NovoPen 4) and insulin needle (NovoTwist 32G/5 mm) were used for accurate deposition of the CNP formulations in the subcutaneous fat tissue with the needle perpendicular to the skin. On Day 5 (4 days post injection) or 6 (5 days post injection), the pigs were euthanised, and the injection sites were removed and fixed in 4% phosphate buffered neutral formaldehyde in sealed plastic containers. The tissue blocks were prefixed for 2-4 hours in 10% buffered formalin, cut into 2 mm thick slabs with a multi knife, examined for macroscopic changes and finally fixed overnight in cassettes. Two slabs of tissue were selected for light microscopic evaluation where the tissue reaction was maximal or alternatively in the central part of the injection site. Three to four 2-4 μm sections were cut from three levels at 100 μm distance, stained with haematoxylin and eosin (H&E) and evaluated in a light microscope. Histopathological changes were graded on a 5-level scale ((Minimal (Min), Mild (Mil), Moderate (Mod), Marked (Mar) and Severe (Sev)). The studies are summarised in Table 18.
Results: The results are summarised in Table 19. * Necrosis was used as a marker for local subcutaneous reactions; **NAD: No Abnormalities Detected

The target of series [2] is T1, neprilysin (NEP) (Homo sapiens, UniProt P08473). As to the kind of experiment: In vitro neprilysin stability. Particulars: recombinant human neprilysin (rhNEP), pH 7.4.
The nature of series [3]: PK after i.v. and s.c. administration to Göttingen minipig. Particulars: female, in vivo, Göttingen Minipig. The procedure: The purpose of this study was to investigate pharmacokinetic and pharmacodynamic properties after intravenous (i.v.) and subcutaneous (s.c.) administration to Gottingen Minipig and domestic LYD pig, and to estimate bioavailability after s.c. dosing. Quantitative plasma analysis of CNP and cGMP levels were performed as described in
Animals and dosing: The pharmacokinetic and pharmacodynamic studies in Gottingen Minipig or domestic LYD pig were conducted at CRO Minerva Imaging or Novo Nordisk A/S, respectively. CNP compounds were dosed to normal female 1) Gottingen minipigs 6-12 months of age with an average weight of 22 kg or 2) domestic LYD pigs 4-5 months of age with and average weight of 80 kg. At least one week prior to dosing, permanent central venous catheters were implanted for blood sampling and intravenous (i.v.) dosing. For subcutaneous (s.c.) dosing, the pigs were ultrasound scanned and the optimal injection area laterally on the neck marked by a permanent tattoo. An insulin pen (NovoPen Echo or NovoPen 4) and insulin needle (NovoFine 32G/4 mm or NovoTwist 32G/5 mm) were used for accurate deposition of the CNP formulations in the subcutaneous fat tissue with the needle perpendicular to the skin.
CNP compounds were formulated according to the principles in General Methods of Preparation—Method G and were either A) 8 mM sodium phosphate, 250 mM glycerol, pH 6.5, B) 5 mM sodium acetate, 250 mM glycerol, pH 4.0, C) 5 mM sodium acetate, 240 mM propylene glycol, pH=4.0, D) 8 mM sodium phosphate, 250 mM glycerol, pH 7.5 or E) 20 mM sodium phosphate, 223 mM propylene glycol, pH 6.0.
Intravenously, the CNP compounds were dosed at 30-60 nmol/kg to Minipig and 15-43 nmol/kg to domestic pig using formulations A-E. Subcutaneously, the CNP compounds were dosed at 55-62 nmol/kg to Minipig and 20-30 nmol/kg to domestic pig using formulations A-D.
Sampling: Blood samples of approximately 1 mL were collected pre dose and up to 14 days post dose into EDTA-coated tubes (8 mM) for cGMP and CNP compound analysis by LC-MS. In few instances, cGMP was only analysed up to 48 hours post dose after intravenous dosing in domestic LYD pig. The blood samples were kept on wet ice for maximum 30 minutes until centrifugation for 10 minutes at 4° C. and minimum 1500G, and the plasma samples were stored at −20° C. until analysis.
Plasma concentration-time profiles were analyzed by non-compartmental PK analysis using Phoenix WinNonlin 8.1, Pharsight Inc., Mountain View, CA, USA. Calculation of the area under the plasma concentration-time curve (AUC) was based on the “linear up log down” method, and uniform weighting was used for estimation of the terminal rate constant (λz). S.c. bioavailability (F) was calculated as the dose-normalized AUC (AUC/dose) after s.c. administration divided by the AUC/dose after i.v. administration. […]

Series [4] in a line: Local tolerance of CNP compounds in rats (s.c. injection, histopathology). The series is classed as in vivo, Sprague Dawley rat. Particulars: rat, s.c. 350 μl, about 1000 nmol/ml, 5 days post injection. The procedure: The purpose of this study was to evaluate the local tissue reaction to subcutaneous injection of CNP compounds in rats.
Procedure: The CNP compounds were formulated according to the principles described in General Methods of Preparation-Method G. Each Sprague Dawley rat (male, 10-11 weeks of age at arrival, Janvier, France) was dosed s.c. with 250 or 350 uL of the same compound (formulation concentration of 1000 nmol/mL) 120 h prior to tissue collection resulting in a total of two injections for each animal (Table 15). Injection site (flank or neck) was alternated across animals within each group and time point.
Animals had access to tap water and food (Altromin 1324) ad libitum. Group size was n=3 for vehicles and positive control, and n=4 for test compounds. Vehicles and compounds were formulated in either 5 mM sodium acetate, 250 mM glycerol, pH 4.0 or 8 mM sodium phosphate, 250 mM glycerol, pH 7.4 as shown in Table 16.
The animals were anesthetized with isoflurane. Via an electric shaving machine, a squared area of fur (2 cm×2 cm) was removed either from the rats' neck or flank area). For dosing, a new injection needle (25G canula, 1 ml syringe) was placed in the middle of the square border closest to the animal's head and the needle was inserted into the skin from the border towards the center of the square. […] On the day of tissue collection, the rats were deeply anaesthetized with isoflurane and euthanized by exsanguination. The injection sites were inspected and scored with regards to pathological lesions. The injection sites were evaluated, and any changes were noted (location, colour, shape and size), and sampled for histology preparation.
The injection sites were removed and fixed in 4% phosphate buffered neutral formaldehyde in sealed plastic containers.
Each injection site was subsequently cut into three sections 0.8 cm, 1.0 cm and 1.2 cm from the square border where the injection needle was placed, and, respectively, these sections represented the injection sites and the adjacent tissue. The tissue was processed, embedded in paraffin and cut in 2-4 μm thin sections, stained with the haematoxylin and eosin (H&E), and evaluated microscopically with a light microscope. Histopathological changes were graded on a 5-level scale (Minimal (Min), Mild (Mil), Moderate (Mod), Marked (Mar) and Severe (Sev)).

The target in series [5] is T1, neprilysin (NEP).
Series [6] concerns the target Recombinant human neprilysin (rhNEP; R&D Systems) (human) (UniProt P08473). As to the kind of experiment: cell-based or functional assay.
For series [7] the following is noted: in vivo; cited from earlier work.
Series [8] has as its target Recombinant human neprilysin (rhNEP; R&D Systems) (human, UniProt P08473 52-750). As to the kind of experiment: cell-based or functional assay.

Sequence of Recombinant human neprilysin (rhNEP; R&D Systems) (P08473 52-750 limits assumed): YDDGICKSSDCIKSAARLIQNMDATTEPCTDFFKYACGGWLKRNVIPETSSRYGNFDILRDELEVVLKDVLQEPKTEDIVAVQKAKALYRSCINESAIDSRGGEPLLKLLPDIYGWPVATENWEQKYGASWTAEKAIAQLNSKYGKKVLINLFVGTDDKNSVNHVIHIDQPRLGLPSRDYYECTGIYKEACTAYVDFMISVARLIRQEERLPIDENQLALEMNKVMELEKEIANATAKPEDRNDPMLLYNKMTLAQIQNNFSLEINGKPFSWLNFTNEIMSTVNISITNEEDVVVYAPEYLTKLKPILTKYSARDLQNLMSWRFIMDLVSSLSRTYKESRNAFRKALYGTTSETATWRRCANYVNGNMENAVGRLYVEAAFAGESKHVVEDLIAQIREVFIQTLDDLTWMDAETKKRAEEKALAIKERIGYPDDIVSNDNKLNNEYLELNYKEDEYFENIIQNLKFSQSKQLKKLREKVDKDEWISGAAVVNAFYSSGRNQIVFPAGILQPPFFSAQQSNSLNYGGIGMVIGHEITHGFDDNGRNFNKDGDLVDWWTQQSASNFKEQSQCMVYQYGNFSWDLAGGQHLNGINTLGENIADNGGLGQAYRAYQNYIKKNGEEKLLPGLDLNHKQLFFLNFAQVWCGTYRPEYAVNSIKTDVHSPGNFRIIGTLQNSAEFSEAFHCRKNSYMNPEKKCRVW
T1 sequence (P08473 whole entry): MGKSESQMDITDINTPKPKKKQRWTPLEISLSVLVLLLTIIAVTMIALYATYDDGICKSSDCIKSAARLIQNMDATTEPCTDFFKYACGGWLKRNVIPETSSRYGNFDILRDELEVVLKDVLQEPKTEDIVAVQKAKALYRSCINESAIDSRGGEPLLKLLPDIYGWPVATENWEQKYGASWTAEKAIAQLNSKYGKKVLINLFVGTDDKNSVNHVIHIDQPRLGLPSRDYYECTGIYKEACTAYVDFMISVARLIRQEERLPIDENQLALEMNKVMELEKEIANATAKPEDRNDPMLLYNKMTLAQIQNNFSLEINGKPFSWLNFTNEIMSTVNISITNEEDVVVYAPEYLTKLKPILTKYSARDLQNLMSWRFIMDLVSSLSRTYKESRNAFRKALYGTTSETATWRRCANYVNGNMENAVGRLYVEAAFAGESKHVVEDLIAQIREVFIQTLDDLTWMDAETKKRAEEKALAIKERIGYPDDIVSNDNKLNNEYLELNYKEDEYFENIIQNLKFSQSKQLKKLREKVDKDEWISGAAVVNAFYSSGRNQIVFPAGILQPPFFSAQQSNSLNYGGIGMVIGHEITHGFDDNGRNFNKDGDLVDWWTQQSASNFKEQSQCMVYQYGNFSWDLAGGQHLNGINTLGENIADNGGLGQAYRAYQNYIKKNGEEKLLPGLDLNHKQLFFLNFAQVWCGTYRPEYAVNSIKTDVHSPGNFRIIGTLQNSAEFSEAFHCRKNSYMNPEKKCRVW
Sequence of Recombinant human neprilysin (rhNEP; R&D Systems) (human) (P08473 52-750 limits assumed): as the sequence (P08473 52-750 limits assumed) above

For `CC[C@H](C)[C@@H]1NC(=O)[C@H](CCCNC(=N)N)NC(=O)[C@H](CC(=O)O)NC(=O)[C@H](CC(C)C)NC(=O)[C@@H]2CCCN2C(=O)[C@H](CC(C)C)NC(=O)CNC(=O)[C@H](Cc2ccccc2)NC(=O)[C@@H](NC(=O)CNC(=O)[C@H](CCC(N)=O)NC(=O)[C@H](CO)NC(=O)[C@H](CO)NC(=O)CNC(=O)[C@H](CCCCN)NC(=O)[C@H](CCCCN)NC(=O)[C@H](CCC(N)=O)NC(=O)[C@H](C)NC(=O)CNC(=O)[C@@H]2CCCN2C(=O)[C@H](C)NC(=O)[C@H](CCC(N)=O)NC(=O)CNC(=O)COCCOCCNC(=O)COCCOCCNC(=O)CC[C@H](NC(=O)CCCCCCCCCCCCCCCCC(=O)O)C(=O)O)CSSC[C@@H](C(=O)O)NC(=O)CNC(=O)[C@H](CC(C)C)NC(=O)CNC(=O)[C@H](CO)NC(=O)[C@H](CC(C)C)NC(=O)[C@H](CO)NC(=O)CNC1=O` [Compound 9384] ({C18 diacid-γGlu-AEEA-AEEA}-GQAPGAQKKGSSQGCFGLPLDRIGSLSGLGC-OH; disulfide 15-31), in series [1], the “Number of injections by severity of necrosis: Min.” value was determined as 1 and the “Number of injections by severity of necrosis: NAD” value was determined as 3. Also, in series [2], the share remaining at 1.5 h, 1000 nM worked out at 87.8%. Besides, the clearance in series [3] (iv, i.v., read-out: CL (ml/hr/kg), Intravenous PK (converted)) was 1.53 mL/h/kg. In addition, in series [3] (iv, i.v., read-out: T½, iv (converted)), the half-life was 2.54 days. In series [3] (sc, s.c. bioavailability, read-out: F (%), Subcutaneous PK), the bioavailability is 78%. Also, the half-life in series [3] (sc, s.c., read-out: T½, sc (converted)) was 2.54 days. Further, the “Number of injections by severity of necrosis: NAD (No Abnormalities Detected)” value in series [4] stood at 4.
As for `CC[C@H](C)[C@@H]1NC(=O)[C@H](CCCNC(=N)N)NC(=O)[C@H](CC(=O)O)NC(=O)[C@H](CC(C)C)NC(=O)[C@H](CCCCN)NC(=O)[C@H](CC(C)C)NC(=O)CNC(=O)[C@H](Cc2ccccc2)NC(=O)[C@@H](NC(=O)CNC(=O)[C@H](CCCCN)NC(=O)[C@H](CO)NC(=O)[C@H](CC(C)C)NC(=O)CN)CSSC[C@@H](C(=O)O)NC(=O)CNC(=O)[C@H](CC(C)C)NC(=O)CNC(=O)[C@H](CO)NC(=O)[C@H](CCSC)NC(=O)[C@H](CO)NC(=O)CNC1=O` [Compound ID 0065, hCNP22], in series [5], the “stability in the presence of recombinant human neprilysin” value is “rapidly degraded”.
With “Compound ID 9483, [N-terminal(C18d-4xgGlu), 5Q, 13Q, 19S, 25P, 27E, 32L]-hCNP37 (peptide)”, in series [6], the Remaining of parent after 90 min (%) is 106%.
With “wt CNP: wild-type C-type natriuretic peptide; half-life of approximately two minutes”, the half-life entry in series [7] was “approximately two”.

B1: Compound ID 9480, [N-terminal(C18d-3xgGlu-4xOEG), des1-8, 13Q, 19Q, 25P, 32L]-hCNP37 (peptide)
peptide: {C18d-γGlu-γGlu-γGlu-AEEA-AEEA-AEEA-AEEA}-YKGAQKKGLSQGCFGLPLDRIGSLSGLGC
modifications: disulfide 13-29 (inferred); reading uncertain; also: printed as [N-terminal(C18d-3xgGlu-4xOEG), des1-8, 13Q, 19Q, 25P, 32L]-hCNP37
For the molecule B1, the “Remaining of parent after 90 min (%)” value in series [8] was found to be 98.3%.

B2: Compound ID 9384, [N-terminal(C18d-gGlu-2xOEG-GQAP), des1-10, 13Q, 17S, 19Q, 25P, 32L]-hCNP37 (peptide)
peptide: {C18d-γGlu-AEEA-AEEA}-GQAPGAQKKGSSQGCFGLPLDRIGSLSGLGC
modifications: disulfide 15-31 (inferred); reading uncertain; also: printed as [N-terminal(C18d-gGlu-2xOEG-GQAP), des1-10, 13Q, 17S, 19Q, 25P, 32L]-hCNP37
Turning to B2, the “Remaining of parent after 90 min (%)” value in series [8] was 87.8%.

B3: Compound ID 9407, [N-terminal(C18d-5xgGlu-4xOEG), des1-5, 13Q, 19Q, 25P, 32L]-hCNP37 (peptide)
peptide: {C18d-γGlu-γGlu-γGlu-γGlu-γGlu-AEEA-AEEA-AEEA-AEEA}-ARKYKGAQKKGLSQGCFGLPLDRIGSLSGLGC
modifications: disulfide 16-32 (inferred); reading uncertain; also: printed as [N-terminal(C18d-5xgGlu-4xOEG), des1-5, 13Q, 19Q, 25P, 32L]-hCNP37
As to B3, in series [8], the “Remaining of parent after 90 min (%)” value was 96.6%.

B4: Compound ID 9435, [N-terminal(C18d-2xgGlu-4xOEG), des1-8, 13Q, 17G, 19Q, 25P, 32L]-hCNP37 (peptide)
peptide: {C18d-γGlu-γGlu-AEEA-AEEA-AEEA-AEEA}-YKGAQKKGGSQGCFGLPLDRIGSLSGLGC
modifications: disulfide 13-29 (inferred); reading uncertain; also: printed as [N-terminal(C18d-2xgGlu-4xOEG), des1-8, 13Q, 17G, 19Q, 25P, 32L]-hCNP37
B4: in series [8], the “Remaining of parent after 90 min (%)” value amounted to 93.2%.
Still for that read-out and setting: with {C18d-γGlu-γGlu-γGlu-γGlu-γGlu}-QEHPQARKYKGAQKKGLSSGCFGLPLDRIGSLSGLGC (disulfide 21-37 (inferred); reading uncertain) [Compound ID 9482, [N-terminal(C18d-5xgGlu), 5Q, 13Q, 19S, 25P, 32L]-hCNP37] the figure was 96.3%.
